According to ChEMBL document CHEMBL3352333, “Structural evidence of N6-isopentenyladenosine as a new ligand of farnesyl pyrophosphate synthase” (J Med Chem, 2014):
The source made the active and inactive calls. The rule behind the calls is not given here.

How the values were obtained:
[1] = target: T1, Farnesyl pyrophosphate synthase (Homo sapiens) (UniProt P14324); experiment: Binding affinity to FPPS (unknown origin) expressed in Escherichia coli BL21(DEscherichia ) at protein/ligand 1:10 to 1:100 molar ratio by saturation transfer difference NMR analysis
T1 sequence (whole entry): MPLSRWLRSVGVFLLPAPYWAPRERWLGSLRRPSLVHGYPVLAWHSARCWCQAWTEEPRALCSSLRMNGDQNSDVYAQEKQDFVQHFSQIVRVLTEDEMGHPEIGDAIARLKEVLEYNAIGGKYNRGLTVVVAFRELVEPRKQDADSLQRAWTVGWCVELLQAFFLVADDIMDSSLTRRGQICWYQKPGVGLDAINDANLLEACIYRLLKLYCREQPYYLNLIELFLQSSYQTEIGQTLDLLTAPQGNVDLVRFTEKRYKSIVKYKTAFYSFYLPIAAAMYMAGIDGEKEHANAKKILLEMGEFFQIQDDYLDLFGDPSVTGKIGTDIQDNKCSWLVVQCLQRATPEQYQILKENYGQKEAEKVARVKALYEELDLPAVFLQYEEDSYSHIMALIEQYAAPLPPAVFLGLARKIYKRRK

[2] = target: T2, Farnesyl pyrophosphate synthase (Homo sapiens, UniProt P14324); experiment: Binding affinity to FPPS (unknown origin) expressed in Escherichia coli BL21(DEscherichia ) assessed as binding constant of proton H12 of isopentenylic moiety by saturation transfer difference NMR analysis
T2 sequence (P14324 whole entry): T1 sequence (whole entry)

[3] = target: T1, Farnesyl pyrophosphate synthase (Homo sapiens); experiment: Binding affinity to FPPS (unknown origin) expressed in Escherichia coli BL21(DEscherichia ) at protein/ligand 1:10 to 1:100 molar ratio by 2D COSY NMR analysis
[4] = target: T2, Farnesyl pyrophosphate synthase; experiment: Binding affinity to FPPS (unknown origin) expressed in Escherichia coli BL21(DEscherichia ) assessed as binding constant of proton H2/H8 of purine ring by saturation transfer difference NMR analysis
[5] = target: T2, Farnesyl pyrophosphate synthase; experiment: Binding affinity to FPPS (unknown origin) expressed in Escherichia coli BL21(DEscherichia ) assessed as binding constant of proton H14-H15 of isopentenylic moiety by saturation transfer difference NMR analysis
[6] = target: T2, Farnesyl pyrophosphate synthase; experiment: Binding affinity to FPPS (unknown origin) expressed in Escherichia coli BL21(DEscherichia ) assessed as binding constant of proton H11 of isopentenylic moiety by saturation transfer difference NMR analysis
[7] = target: T1, Farnesyl pyrophosphate synthase (Homo sapiens); experiment: Binding affinity to FPPS (unknown origin) expressed in Escherichia coli BL21(DEscherichia ) at protein/ligand 1:10 to 1:100 molar ratio by WaterLOGSY NMR analysis
[8] = target: T1, Farnesyl pyrophosphate synthase (Homo sapiens); experiment: Binding affinity to FPPS (unknown origin) expressed in Escherichia coli BL21(DEscherichia ) at protein/ligand 1:10 to 1:100 molar ratio by WaterLOGSY 1D 1H NMR analysis

Activity [1]: Active
Kd [2]: 2.21 mM
Activity [3]: Active
Kd [4]: 2.02 mM
Kd [5]: 1.21 mM
Kd [6]: 550 µM
Activity [7]: Active
Activity [8]: Active
SMILES: CC(C)=CCNc1ncnc2c1ncn2[C@@H]1O[C@H](CO)[C@@H](O)[C@H]1O [RIBOPRINE]
